Assay results: PMC1976386 (Molecular Microbiology, 2007)

Target: CaKip1p (Candida albicans, UniProt A0A1D8PT88)
Details: read-out: Value

Km: 7.4 ± 0.7 µM
Compound: Nc1ncnc2c1ncn2[C@@H]1O[C@H](COP(=O)(O)OP(=O)(O)OP(=O)(O)O)[C@@H](O)[C@H]1O [ATP]
